Source: patent publication EP4745137A1 (Gluetacs Therapeutics (Shanghai) Co., Ltd., priority 2023, dated 2025)

Experiments:
[1] = biological target: T1, WEE1 (Homo sapiens, UniProt P30291+Q96SW2); test: Western-blot assay of substrate protein degradation in hPBMCs, WEE1; type: cell-based; conditions: 24 hours of compound treatment
T1 construct: endogenous in cells; host or cells: hPBMCs (Milecell Biotechnologies)

[2] = biological target: T2, IKZF3 (Homo sapiens, UniProt Q96SW2+Q9UKT9); test: Western-blot assay of substrate protein degradation in hPBMCs, IKZF3; type: cell-based; conditions: 24 hours of compound treatment
T2 construct: endogenous in cells; host or cells: hPBMCs (Milecell Biotechnologies)
T2 sequence (Q9UKT9 whole entry): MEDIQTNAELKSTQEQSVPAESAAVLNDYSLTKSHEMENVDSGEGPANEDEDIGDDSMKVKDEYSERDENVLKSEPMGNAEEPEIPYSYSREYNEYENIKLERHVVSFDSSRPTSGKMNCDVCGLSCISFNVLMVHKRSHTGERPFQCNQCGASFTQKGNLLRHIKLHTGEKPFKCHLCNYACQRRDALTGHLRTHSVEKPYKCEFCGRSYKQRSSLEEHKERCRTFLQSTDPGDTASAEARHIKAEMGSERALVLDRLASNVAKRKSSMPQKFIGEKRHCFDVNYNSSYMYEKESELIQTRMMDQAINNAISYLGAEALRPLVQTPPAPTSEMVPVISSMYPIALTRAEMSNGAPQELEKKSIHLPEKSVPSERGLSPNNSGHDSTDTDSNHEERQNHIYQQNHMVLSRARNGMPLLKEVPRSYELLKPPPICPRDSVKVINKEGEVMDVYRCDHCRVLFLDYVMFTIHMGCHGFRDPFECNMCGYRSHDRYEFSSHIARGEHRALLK
T2 sequence (Q96SW2 whole entry): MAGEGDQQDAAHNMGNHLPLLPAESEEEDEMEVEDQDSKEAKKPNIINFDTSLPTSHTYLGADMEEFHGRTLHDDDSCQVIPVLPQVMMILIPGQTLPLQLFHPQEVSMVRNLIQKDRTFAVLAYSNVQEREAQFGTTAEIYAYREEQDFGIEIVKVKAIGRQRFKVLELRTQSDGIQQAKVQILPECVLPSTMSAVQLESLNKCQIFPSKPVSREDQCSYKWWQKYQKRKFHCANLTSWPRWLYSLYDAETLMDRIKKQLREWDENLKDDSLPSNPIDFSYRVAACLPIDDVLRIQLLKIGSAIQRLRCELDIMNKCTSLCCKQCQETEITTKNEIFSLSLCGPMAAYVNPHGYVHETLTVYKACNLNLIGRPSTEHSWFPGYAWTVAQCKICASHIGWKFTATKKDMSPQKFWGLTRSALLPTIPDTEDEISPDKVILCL
T2 sequence (Q16531 whole entry partner): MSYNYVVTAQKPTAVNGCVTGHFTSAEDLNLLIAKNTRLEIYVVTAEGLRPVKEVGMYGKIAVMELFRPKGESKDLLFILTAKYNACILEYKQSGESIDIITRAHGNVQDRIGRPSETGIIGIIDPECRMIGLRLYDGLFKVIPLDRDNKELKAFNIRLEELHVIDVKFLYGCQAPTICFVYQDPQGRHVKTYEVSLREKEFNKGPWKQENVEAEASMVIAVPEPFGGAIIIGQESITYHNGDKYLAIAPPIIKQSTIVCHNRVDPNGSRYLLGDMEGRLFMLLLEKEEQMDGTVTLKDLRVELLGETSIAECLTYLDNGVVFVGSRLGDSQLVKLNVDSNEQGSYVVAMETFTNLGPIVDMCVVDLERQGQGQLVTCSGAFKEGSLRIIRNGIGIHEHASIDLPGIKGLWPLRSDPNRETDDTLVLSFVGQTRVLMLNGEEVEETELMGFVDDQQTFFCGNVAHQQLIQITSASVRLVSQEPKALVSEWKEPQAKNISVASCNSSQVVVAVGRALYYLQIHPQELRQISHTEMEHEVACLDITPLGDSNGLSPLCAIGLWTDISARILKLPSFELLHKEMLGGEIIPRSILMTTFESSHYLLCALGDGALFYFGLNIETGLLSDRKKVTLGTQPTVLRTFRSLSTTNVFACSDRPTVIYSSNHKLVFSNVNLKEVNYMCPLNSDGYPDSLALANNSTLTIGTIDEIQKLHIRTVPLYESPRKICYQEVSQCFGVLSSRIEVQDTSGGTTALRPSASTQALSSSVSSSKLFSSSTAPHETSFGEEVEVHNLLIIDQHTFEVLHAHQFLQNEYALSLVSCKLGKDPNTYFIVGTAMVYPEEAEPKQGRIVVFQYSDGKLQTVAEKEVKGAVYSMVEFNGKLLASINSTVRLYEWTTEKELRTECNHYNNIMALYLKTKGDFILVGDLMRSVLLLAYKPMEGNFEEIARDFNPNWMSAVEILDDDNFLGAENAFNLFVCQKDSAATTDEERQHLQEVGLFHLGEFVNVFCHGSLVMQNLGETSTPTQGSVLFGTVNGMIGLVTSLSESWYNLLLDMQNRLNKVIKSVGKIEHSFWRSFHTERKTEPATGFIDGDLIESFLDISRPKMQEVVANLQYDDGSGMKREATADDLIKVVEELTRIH

[3] = biological target: T3, IKZF2 (Homo sapiens, UniProt Q96SW2+Q9UKS7); test: Western-blot assay of substrate protein degradation in hPBMCs, IKZF2; type: cell-based; conditions: 24 hours of compound treatment
T3 construct: endogenous in cells; host or cells: hPBMCs (Milecell Biotechnologies)
T3 sequence (Q9UKS7 whole entry): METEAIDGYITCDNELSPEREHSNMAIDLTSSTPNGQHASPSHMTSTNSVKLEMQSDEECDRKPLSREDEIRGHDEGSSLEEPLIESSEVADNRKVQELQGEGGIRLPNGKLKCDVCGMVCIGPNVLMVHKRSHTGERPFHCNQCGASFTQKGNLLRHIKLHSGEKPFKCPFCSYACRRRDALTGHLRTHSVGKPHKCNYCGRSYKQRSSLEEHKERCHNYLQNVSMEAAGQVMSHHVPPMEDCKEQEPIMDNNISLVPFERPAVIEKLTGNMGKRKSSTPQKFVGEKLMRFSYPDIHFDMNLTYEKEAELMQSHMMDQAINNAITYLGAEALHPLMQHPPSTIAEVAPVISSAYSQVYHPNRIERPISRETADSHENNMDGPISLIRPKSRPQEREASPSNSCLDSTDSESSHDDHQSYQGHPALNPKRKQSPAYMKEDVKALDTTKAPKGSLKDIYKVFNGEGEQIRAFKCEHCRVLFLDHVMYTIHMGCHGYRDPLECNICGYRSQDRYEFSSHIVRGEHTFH
T3 sequence (Q96SW2 whole entry): as the sequence (Q96SW2 whole entry) above
T3 sequence (Q16531 whole entry partner): as the sequence (Q16531 whole entry partner) above

[4] = biological target: T4, CK1α (Homo sapiens, UniProt P48729+Q96SW2); test: Western-blot assay of substrate protein degradation in hPBMCs, CK1α; type: cell-based; conditions: 24 hours of compound treatment
T4 construct: endogenous in cells; host or cells: hPBMCs (Milecell Biotechnologies)
T4 sequence (P48729 whole entry): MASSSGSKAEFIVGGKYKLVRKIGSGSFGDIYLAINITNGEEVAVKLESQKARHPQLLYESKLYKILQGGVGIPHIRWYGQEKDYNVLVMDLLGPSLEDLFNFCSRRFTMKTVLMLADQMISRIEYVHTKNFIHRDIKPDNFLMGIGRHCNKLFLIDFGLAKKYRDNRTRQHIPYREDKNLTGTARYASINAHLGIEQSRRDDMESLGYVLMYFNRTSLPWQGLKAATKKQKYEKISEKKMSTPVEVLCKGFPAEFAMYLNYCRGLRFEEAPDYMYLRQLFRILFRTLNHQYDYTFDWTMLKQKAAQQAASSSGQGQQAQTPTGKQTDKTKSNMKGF
T4 sequence (Q96SW2 whole entry): as the sequence (Q96SW2 whole entry) above
T4 sequence (Q16531 whole entry partner): as the sequence (Q16531 whole entry partner) above

[5] = test system: Human acute T lymphocytic leukemia cells (Molt-4); test: Tumor cell proliferation inhibition (CellTiter-Meiluncell Luminescent Cell Viability Assay), Molt-4; conditions: MOLT-4, 96 h, read-out: inhibitory activity (IC50, nM) against tumor cells proliferation, Molt 4
[6] = biological target: T5, IKZF1 (Homo sapiens, UniProt Q13422+Q96SW2); test: Western-blot assay of substrate protein degradation in hPBMCs, IKZF1; type: cell-based; conditions: 24 hours of compound treatment
T5 construct: endogenous in cells; host or cells: hPBMCs (Milecell Biotechnologies)
T5 sequence (Q13422 whole entry): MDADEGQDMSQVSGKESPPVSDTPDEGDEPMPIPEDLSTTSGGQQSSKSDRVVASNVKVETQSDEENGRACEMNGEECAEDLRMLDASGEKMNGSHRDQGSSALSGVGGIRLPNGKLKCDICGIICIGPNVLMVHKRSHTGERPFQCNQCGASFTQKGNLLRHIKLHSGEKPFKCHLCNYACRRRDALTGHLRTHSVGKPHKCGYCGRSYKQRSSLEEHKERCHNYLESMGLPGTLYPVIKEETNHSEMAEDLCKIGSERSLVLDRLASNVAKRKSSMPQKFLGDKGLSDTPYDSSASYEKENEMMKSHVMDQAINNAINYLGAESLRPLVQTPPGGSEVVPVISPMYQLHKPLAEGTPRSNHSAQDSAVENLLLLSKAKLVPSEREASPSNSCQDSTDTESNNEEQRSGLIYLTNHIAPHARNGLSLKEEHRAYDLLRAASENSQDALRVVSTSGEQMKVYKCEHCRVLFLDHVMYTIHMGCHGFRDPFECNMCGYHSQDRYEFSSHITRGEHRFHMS
T5 sequence (Q96SW2 whole entry): as the sequence (Q96SW2 whole entry) above
T5 sequence (Q16531 whole entry partner): as the sequence (Q16531 whole entry partner) above

[7] = biological target: T6, human Cereblon WT GST-tagged protein (Homo sapiens, UniProt Q96SW2); test: CRBN-binding affinity by HTRF (CEREBLON BINDING kit); conditions: HTRF inhibitory activity, CEREBLON BINDING kit; read-out: HTRF IC50
T6 construct: purchased CISBIO 64BDCRBNPEH
T6 sequence (Q96SW2 whole entry): as the sequence (Q96SW2 whole entry) above

[8] = biological target: T7, GSPT1 (Homo sapiens, UniProt P15170+Q96SW2); test: Western-blot assay of substrate protein degradation in hPBMCs, GSPT1; type: cell-based; conditions: 24 hours of compound treatment
T7 construct: endogenous in cells; host or cells: hPBMCs (Milecell Biotechnologies)
T7 sequence (P15170 whole entry): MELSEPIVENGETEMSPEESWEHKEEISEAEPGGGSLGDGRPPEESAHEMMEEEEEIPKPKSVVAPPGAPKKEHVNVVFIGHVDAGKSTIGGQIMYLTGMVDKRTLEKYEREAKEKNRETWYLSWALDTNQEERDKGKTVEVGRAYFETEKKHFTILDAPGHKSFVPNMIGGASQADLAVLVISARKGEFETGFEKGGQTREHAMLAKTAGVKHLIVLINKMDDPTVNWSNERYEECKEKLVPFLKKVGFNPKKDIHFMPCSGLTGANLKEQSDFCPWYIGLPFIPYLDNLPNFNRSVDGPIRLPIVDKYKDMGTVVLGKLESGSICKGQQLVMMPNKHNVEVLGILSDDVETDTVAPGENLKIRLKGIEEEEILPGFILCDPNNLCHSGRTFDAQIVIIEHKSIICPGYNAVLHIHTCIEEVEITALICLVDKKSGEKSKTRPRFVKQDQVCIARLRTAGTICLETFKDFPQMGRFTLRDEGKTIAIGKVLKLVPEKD
T7 sequence (Q96SW2 whole entry): as the sequence (Q96SW2 whole entry) above
T7 sequence (Q16531 whole entry partner): as the sequence (Q16531 whole entry partner) above

[9] = test system: Human breast cancer cells (MDA-MB-231); test: Tumor cell proliferation inhibition (CellTiter-Meiluncell Luminescent Cell Viability Assay), MDA-MB-231; conditions: for IC50: MDA-MB-231, 96 h, read-out: inhibitory activity (IC50, nM) against tumor cells proliferation, MDA-MB-231; for inhibition at 0.01 µM: MDA-MB-231, read-out: Inhibition rate (%) at 10 nM; for inhibition at 0.5 µM: MDA-MB-231, read-out: Inhibition rate (%) at 500 nM
[10] = test system: NCI-H1975; test: Tumor cell proliferation inhibition (CellTiter-Meiluncell Luminescent Cell Viability Assay), NCI-H1975; conditions: Homo sapiens, NCI-H1975, 96 h, read-out: inhibitory activity (IC50, nM) against tumor cells proliferation, H1975
[11] = compounds tested at 50 nM and 500 nM (concentration of the table not stated)
[12] = 50 nM and 500 nM tested (concentration behind the class not stated)

Row | IC50 [5] [nM] | IC50 [7] [µM] | SMILES | Weel substrate protein remaining % [1, 11] | IKZF3 substrate protein remaining % [2, 11] | IKZF2 substrate protein remaining % [3, 11] | CK1a substrate protein remaining % [4, 11] | IKZF 1 substrate protein remaining % [6, 11] | GSPT1 substrate protein remaining % [8, 11] | IC50 [9] [nM] | IC50 [10] [nM] | inhibition at 0.01 µM [9] [%] | inhibition at 0.5 µM [9] [%] | Weel substrate protein remaining % [1, 12] | IKZF3 substrate protein remaining % [2, 12] | IKZF2 substrate protein remaining % [3, 12] | CK1a substrate protein remaining % [4, 12] | IKZF 1 substrate protein remaining % [6, 12] | GSPT1 substrate protein remaining % [8, 12]
1 | 10 to 50 | 0.5 to 1 | O=C1CCC(N2Cc3cc(CN4CCC(c5c[nH]c6ncccc56)CC4)ccc3C2=O)C(=O)N1 (stereo not shown) [GT-04603, 3-(5-((4-(1H-pyrrolo[2,3-b]pyridin-3-yl)piperidin-1-yl)methyl)-1-oxoisoindolin-2-yl)piperidine-2,6-dione] | A (0% ≤ substrate protein remaining % ≤ 80%) | A (0% ≤ substrate protein remaining % ≤ 80%) | A (0% ≤ substrate protein remaining % ≤ 80%) | A (0% ≤ substrate protein remaining % ≤ 80%) | A (0% ≤ substrate protein remaining % ≤ 80%) | A (0% ≤ substrate protein remaining % ≤ 80%) | 100 to 500 | 100 to 500 |  |  |  |  |  |  |  | 
2 | 500 to 1000 | < 0.5 | O=C1CCC(N2Cc3cc(CN4CCN(c5nc(N6CCOCC6)nc6c5SCC6)CC4)ccc3C2=O)C(=O)N1 (stereo not shown) [GT-04710, 3-(5-((4-(2-morpholino-6,7-dihydrothieno[3,2-d]pyrimidin-4-yl)piperazin-1-yl)methyl)-1-oxoisoindolin-2-yl)piperidine-2,6-dione] | B (80%< substrate protein remaining %≤ 100%) | A (0% ≤ substrate protein remaining % ≤ 80%) | B (80%< substrate protein remaining %≤ 100%) | A (0% ≤ substrate protein remaining % ≤ 80%) | B (80%< substrate protein remaining %≤ 100%) | A (0% ≤ substrate protein remaining % ≤ 80%) |  |  |  |  |  |  |  |  |  | 
3 | 100 to 500 | 0.5 to 1 | O=C1CCC(N2Cc3cc(CN4CC(n5cnc6cc(F)ccc65)C4)ccc3C2=O)C(=O)N1 (stereo not shown) [GT-04716, 3-(5-((3-(5-fluoro-1H-benzo[d]imidazol-1-yl)azetidin-1-yl)methyl)-1-oxoisoindolin-2-yl)piperidine-2,6-dione] | B (80%< substrate protein remaining %≤ 100%) | B (80%< substrate protein remaining %≤ 100%) | B (80%< substrate protein remaining %≤ 100%) | B (80%< substrate protein remaining %≤ 100%) | B (80%< substrate protein remaining %≤ 100%) | A (0% ≤ substrate protein remaining % ≤ 80%) |  |  |  |  |  |  |  |  |  | 
4 | 50 to 100 | < 0.5 | O=C1CCC(N2Cc3cc(CN4CC=C(c5c[nH]c6cc(F)ccc56)CC4)ccc3C2=O)C(=O)N1 (stereo not shown) [GT-04722, 3-(5-((4-(6-fluoro-1H-indol-3-yl)-3,6-dihydropyridin-1(2H)-yl)methyl)-1-oxoisoindolin-2-yl)piperidine-2,6-dione] | B (80%< substrate protein remaining %≤ 100%) | A (0% ≤ substrate protein remaining % ≤ 80%) | B (80%< substrate protein remaining %≤ 100%) | A (0% ≤ substrate protein remaining % ≤ 80%) | B (80%< substrate protein remaining %≤ 100%) | A (0% ≤ substrate protein remaining % ≤ 80%) | 100 to 500 | 100 to 500 |  |  |  |  |  |  |  | 
5 | 10 to 50 | 0.5 to 1 | Cc1nc(C2CCN(Cc3ccc4c(c3)CN(C3CCC(=O)NC3=O)C4=O)CC2)c2ccsc2n1 (stereo not shown) [GT-04726, 3-(5-((4-(2-methylthieno[2,3-d]pyrimidin-4-yl)piperidin-1-yl)methyl)-1-oxoisoindolin-2-yl)piperidine-2,6-dione] | A (0% ≤ substrate protein remaining % ≤ 80%) | A (0% ≤ substrate protein remaining % ≤ 80%) | A (0% ≤ substrate protein remaining % ≤ 80%) | A (0% ≤ substrate protein remaining % ≤ 80%) | A (0% ≤ substrate protein remaining % ≤ 80%) | A (0% ≤ substrate protein remaining % ≤ 80%) |  |  |  |  |  |  |  |  |  | 
6 |  |  | O=C1CCC(N2C(=O)c3ccc(CN4CCN(c5ncccc5Cl)CC4)cc3C2=O)C(=O)N1 (stereo not shown) [GT-07843, 5-((4-(3-chloropyridin-2-yl)piperazin-1-yl)methyl)-2-(2,6-dioxopiperidin-3-yl)isoindoline-1,3-dione] |  |  |  |  |  |  |  |  | 30 to 40 | 30 to 40 |  |  |  |  |  | 
7 |  |  | O=C1CCC(N2C(=O)c3ccc(CN4CCN(c5nc(N6CCCC6)nc6c5SCC6)CC4)cc3C2=O)C(=O)N1 (stereo not shown) [GT-08004, 2-(2,6-dioxopiperidin-3-yl)-5-((4-(2-(pyrrolidin-1-yl)-6,7-dihydrothieno[3,2-d]pyrimidin-4-yl)piperazin-1-yl)methyl)isoindoline-1,3-dione] |  |  |  |  |  |  |  |  | 30 to 40 | 40 to 50 | B (80%< substrate protein remaining %≤ 100%) | A (0% ≤ substrate protein remaining % ≤ 80%) | A (0% ≤ substrate protein remaining % ≤ 80%) | B (80%< substrate protein remaining %≤ 100%) | A (0% ≤ substrate protein remaining % ≤ 80%) | A (0% ≤ substrate protein remaining % ≤ 80%)
8 |  |  | O=C1CCC(N2C(=O)c3ccc(CN4CCN(c5nc(N6CCC6)nc6c5SCC6)CC4)cc3C2=O)C(=O)N1 (stereo not shown) [GT-08005, 5-((4-(2-(azetidin-1-yl)-6,7-dihydrothieno[3,2-d]pyrimidin-4-yl)piperazin-1-yl)methyl)-2-(2,6-dioxopiperidin-3-yl)isoindoline-1,3-dione] |  |  |  |  |  |  |  |  | 20 to 30 | 30 to 40 | B (80%< substrate protein remaining %≤ 100%) | A (0% ≤ substrate protein remaining % ≤ 80%) | A (0% ≤ substrate protein remaining % ≤ 80%) | B (80%< substrate protein remaining %≤ 100%) | A (0% ≤ substrate protein remaining % ≤ 80%) | B (80%< substrate protein remaining %≤ 100%)

Row | SMILES | IC50 [5] [nM] | IC50 [7] [µM] | Weel substrate protein remaining % [1, 11] | IKZF3 substrate protein remaining % [2, 11] | IKZF2 substrate protein remaining % [3, 11] | CK1a substrate protein remaining % [4, 11] | IKZF 1 substrate protein remaining % [6, 11] | GSPT1 substrate protein remaining % [8, 11] | IC50 [9] [nM] | IC50 [10] [nM] | inhibition at 0.01 µM [9] [%] | inhibition at 0.5 µM [9] [%] | Weel substrate protein remaining % [1, 12] | IKZF3 substrate protein remaining % [2, 12] | IKZF2 substrate protein remaining % [3, 12] | CK1a substrate protein remaining % [4, 12] | IKZF 1 substrate protein remaining % [6, 12] | GSPT1 substrate protein remaining % [8, 12]
9 | O=C1CCC(N2Cc3cc(CN4CCC(N5CCCc6cc(F)ccc65)CC4)ccc3C2=O)C(=O)N1 (stereo not shown) [GT-04691, 3-(5-((4-(6-fluoro-3,4-dihydroquinolin-1(2H)-yl)piperidin-1-yl)methyl)-1-oxoisoindolin-2-yl)piperidine-2,6-dione] | 10 to 50 | 0.5 to 1 | A (0% ≤ substrate protein remaining % ≤ 80%) | A (0% ≤ substrate protein remaining % ≤ 80%) | A (0% ≤ substrate protein remaining % ≤ 80%) | A (0% ≤ substrate protein remaining % ≤ 80%) | A (0% ≤ substrate protein remaining % ≤ 80%) | A (0% ≤ substrate protein remaining % ≤ 80%) | 500 to 1000 | 500 to 1000 |  |  |  |  |  |  |  | 
10 | O=C1CCC(N2Cc3cc(CN4C5CC4CN(c4cccc(Cl)c4Cl)C5)ccc3C2=O)C(=O)N1 (stereo not shown) [GT-04712, 3-(5-((3-(2,3-dichlorophenyl)-3,6-diazabicyclo[3.1.1]heptan-6-yl)methyl)-1-oxoisoindolin-2-yl)piperidine-2,6-dione] | 10 to 50 | 0.5 to 1 | B (80%< substrate protein remaining %≤ 100%) | A (0% ≤ substrate protein remaining % ≤ 80%) | B (80%< substrate protein remaining %≤ 100%) | A (0% ≤ substrate protein remaining % ≤ 80%) | B (80%< substrate protein remaining %≤ 100%) | A (0% ≤ substrate protein remaining % ≤ 80%) | 50 to 100 | 100 to 500 |  |  |  |  |  |  |  | 
11 | Cc1ccsc1C1=CCN(Cc2ccc3c(c2)C(=O)N(C2CCC(=O)NC2=O)C3=O)CC1 (stereo not shown) [GT-04732, 2-(2,6-dioxopiperidin-3-yl)-5-((4-(3-methylthiophen-2-yl)-3,6-dihydropyridin-1(2H)-yl)methyl)isoindoline-1,3-dione] | 50 to 100 | 0.5 to 1 | A (0% ≤ substrate protein remaining % ≤ 80%) | B (80%< substrate protein remaining %≤ 100%) | B (80%< substrate protein remaining %≤ 100%) | A (0% ≤ substrate protein remaining % ≤ 80%) | B (80%< substrate protein remaining %≤ 100%) | A (0% ≤ substrate protein remaining % ≤ 80%) | 500 to 1000 |  |  |  |  |  |  |  |  | 
